“And” between values parts separate entries of the source, which are not always exact repeats. Equal entries are not always repeated. Inconclusive results and toxic doses are left out. No stated cut-off is given here; in the data, active means T/C of 150% or more; inactive means T/C below 125%.
System: L1210 leukemia ip in BDF1 mice, survival T/C
Assay: NCI In Vivo Anticancer Drug Screen. Data for tumor model L1210 Leukemia (intraperitoneal) in B6D2F1 (BDF1) mice
Settings: endpoint: mean survival time, higher = longer survival
Summary of the method: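 Transplantable tumor model; survival measured in treated vs vehicle control mice. Value = treated/control.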

Measured: T/C

CCNC(=O)c1cc2cccc(OC)c2oc1=N
inactive: dose: 100.0 mg/kg/injection, schedule: Q04DX003 (ip), vehicle: saline 105 % of control | dose: 200.0 mg/kg/injection, schedule: Q04DX003 (ip), vehicle: saline 97 % of control | dose: 400.0 mg/kg/injection, schedule: Q04DX003 (ip), vehicle: saline 90 % of control

Cc1cccc(NC(=O)c2cccc([N+](=O)[O-])c2C(=O)O)c1C
inactive: dose: 100.0 mg/kg/injection, schedule: Q04DX002 (ip), vehicle: Klucel (hydroxypropylcellulose) (HPC) 103 % of control | dose: 200.0 mg/kg/injection, schedule: Q04DX002 (ip), vehicle: Klucel (hydroxypropylcellulose) (HPC) 103 % of control | dose: 400.0 mg/kg/injection, schedule: Q04DX002 (ip), vehicle: Klucel (hydroxypropylcellulose) (HPC) 103 % of control

CC(=O)OCC(OC(C)=O)C(OC(C)=O)C(C=O)OC(C)=O (stereo not drawn)
inactive: dose: 100.0 mg/kg/injection, schedule: Q01DX001 (ip), vehicle: Klucel (hydroxypropylcellulose) (HPC) 105 % of control | dose: 100.0 mg/kg/injection, schedule: Q01DX009 (ip), vehicle: saline with Tween-80 90 % of control | dose: 100.0 mg/kg/injection, schedule: Q04DX003 (ip), vehicle: saline with Tween-80 93 % of control | dose: 200.0 mg/kg/injection, schedule: Q01DX001 (ip), vehicle: Klucel (hydroxypropylcellulose) (HPC) 97 % of control | dose: 200.0 mg/kg/injection, schedule: Q01DX009 (ip), vehicle: saline with Tween-80 93 % of control | dose: 200.0 mg/kg/injection, schedule: Q04DX003 (ip), vehicle: saline with Tween-80 88 % of control | dose: 400.0 mg/kg/injection, schedule: Q01DX001 (ip), vehicle: Klucel (hydroxypropylcellulose) (HPC) 105 % of control | dose: 400.0 mg/kg/injection, schedule: Q01DX009 (ip), vehicle: saline with Tween-80 88 % of control | dose: 400.0 mg/kg/injection, schedule: Q04DX003 (ip), vehicle: saline with Tween-80 91 % of control

Cc1ccc(NC(=S)NC(=O)/C=C/c2ccccc2)cc1Cl
inactive: dose: 25.0 mg/kg/injection, schedule: Q01DX009 (ip), vehicle: saline with Tween-80 94 % of control | dose: 50.0 mg/kg/injection, schedule: Q01DX009 (ip), vehicle: saline with Tween-80 96 % of control and 86 % of control | dose: 100.0 mg/kg/injection, schedule: Q01DX001 (ip), vehicle: saline with Tween-80 87 % of control | dose: 100.0 mg/kg/injection, schedule: Q04DX002 (ip), vehicle: saline with Tween-80 97 % of control | dose: 200.0 mg/kg/injection, schedule: Q01DX001 (ip), vehicle: saline with Tween-80 87 % of control | dose: 200.0 mg/kg/injection, schedule: Q04DX002 (ip), vehicle: saline with Tween-80 87 % of control and 89 % of control | dose: 400.0 mg/kg/injection, schedule: Q04DX002 (ip), vehicle: saline with Tween-80 87 % of control and 89 % of control

CCCCCCCCC(=O)N(CCC)CCC
inactive: dose: 100.0 mg/kg/injection, schedule: Q01DX009 (ip), vehicle: carboxymethylcellulose (CMC) 94 % of control and 97 % of control | dose: 100.0 mg/kg/injection, schedule: Q04DX002 (ip), vehicle: carboxymethylcellulose (CMC) 96 % of control | dose: 200.0 mg/kg/injection, schedule: Q01DX009 (ip), vehicle: carboxymethylcellulose (CMC) 93 % of control and 96 % of control | dose: 200.0 mg/kg/injection, schedule: Q04DX002 (ip), vehicle: carboxymethylcellulose (CMC) 96 % of control | dose: 400.0 mg/kg/injection, schedule: Q01DX009 (ip), vehicle: carboxymethylcellulose (CMC) 94 % of control and 90 % of control | dose: 400.0 mg/kg/injection, schedule: Q04DX002 (ip), vehicle: carboxymethylcellulose (CMC) 96 % of control
